# Reference: US20230085307A1, “PYRIDAZINONE COMPOUND AND HERBICIDE” (NISSAN CHEMICAL CORPORATION, priority 2019, published 2023)
# Columns and labels:
# [1] = test system: barnyard grass; assay: Test Example 3: herbicidal effect by foliage application, Wagner pot (Table 18, symbol H); type: in vivo, barnyard grass (Echinochloa crus-galli)
# Method in brief: (§1)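 Plants were sown in alluvial soil held under 0.1–0.5 cm standing water and grown 14 days in a greenhouse at 25–30 °C. An emulsifiable formulation, water-diluted to the set dose, was then sprayed onto the foliage, and effects were scored three weeks later using previously defined criteria.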
# [2] = test system: Chinese sprangletop; assay: Test Example 3: herbicidal effect by foliage application, Wagner pot (Table 18, symbol D); type: in vivo, chinese sprangletop (Leptochloa chinensis)
# Method in brief: as §1
# [3] = test system: rice flat sedge; assay: Test Example 3: herbicidal effect by foliage application, Wagner pot (Table 18, symbol E); type: in vivo, rice flat sedge (Cyperus iria)
# Method in brief: as §1
# [4] = test system: southern crabgrass; assay: Test Example 4: herbicidal effect by soil treatment (Table 19, symbol F); type: in vivo, southern crabgrass (Digitaria ciliaris)
# Method in brief: (§2)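 Soil-surface application: an emulsion agent diluted with water to the predetermined dose is sprayed uniformly over seeds lying under roughly 1.5 cm of sterilized diluvial soil. Boxes stay in a greenhouse at 25° C. to 30° C. Three weeks later, each species is graded on previously defined criteria.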
# [5] = test system: green foxtail; assay: Test Example 4: herbicidal effect by soil treatment (Table 19, symbol G); type: in vivo, green foxtail (Setaria viridis)
# Method in brief: as §2
# [6] = test system: barnyard grass; assay: Test Example 4: herbicidal effect by soil treatment (Table 19, symbol H); type: in vivo, barnyard grass (Echinochloa crus-galli)
# Method in brief: as §2
# [7] = test system: wild oat; assay: Test Example 4: herbicidal effect by soil treatment (Table 19, symbol I); type: in vivo, wild oat (Avena fatua)
# Method in brief: as §2
# [8] = test system: blackgrass; assay: Test Example 4: herbicidal effect by soil treatment (Table 19, symbol J); type: in vivo, blackgrass (Alopecurus myosuroides)
# Method in brief: as §2
# [9] = test system: Italian ryegrass; assay: Test Example 4: herbicidal effect by soil treatment (Table 19, symbol K); type: in vivo, Italian ryegrass (Lolium multiflorum)
# Method in brief: as §2
# [10] = test system: windgrass; assay: Test Example 4: herbicidal effect by soil treatment (Table 19, symbol L); type: in vivo, windgrass (Apera spica-venti)
# Method in brief: as §2
# [11] = test system: velvetleaf; assay: Test Example 4: herbicidal effect by soil treatment (Table 19, symbol M); type: in vivo, velvetleaf (Abutilon theophrasti)
# Method in brief: as §2
# [12] = test system: redroot pigweed; assay: Test Example 4: herbicidal effect by soil treatment (Table 19, symbol N); type: in vivo, redroot pigweed (Amaranthus retroflexus)
# Method in brief: as §2
# [13] = test system: lambsquarters; assay: Test Example 4: herbicidal effect by soil treatment (Table 19, symbol O); type: in vivo, lambsquarters (Chenopodium album)
# Method in brief: as §2
# [14] = test system: chickweed; assay: Test Example 4: herbicidal effect by soil treatment (Table 19, symbol P); type: in vivo, common chickweed (Stellaria media)
# Method in brief: as §2
# [15] = test system: persian speedwell; assay: Test Example 4: herbicidal effect by soil treatment (Table 19, symbol R); type: in vivo, Persian speedwell (Veronica persica)
# Method in brief: as §2
# [16] = test system: southern crabgrass; assay: Test Example 5: herbicidal effect by foliage application, plastic box (Table 20, symbol F); type: in vivo, southern crabgrass (Digitaria ciliaris); conditions: foliage application, evaluated three weeks after application
# Method in brief: (§3)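 Sow seeds spot-wise in sterilized diluvial soil; cover with ~1.5 cm soil. Grow 14 days in greenhouse, 25° C. to 30° C. Spray foliage with emulsion diluted to predetermined amount. Rate effect after 3 weeks.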
# [17] = test system: green foxtail; assay: Test Example 5: herbicidal effect by foliage application, plastic box (Table 20, symbol G); type: in vivo, green foxtail (Setaria viridis); conditions: foliage application, evaluated three weeks after application
# Method in brief: as §3
# [18] = test system: barnyard grass; assay: Test Example 5: herbicidal effect by foliage application, plastic box (Table 20, symbol H); type: in vivo, barnyard grass (Echinochloa crus-galli); conditions: foliage application, evaluated three weeks after application
# Method in brief: as §3
# [19] = test system: wild oat; assay: Test Example 5: herbicidal effect by foliage application, plastic box (Table 20, symbol I); type: in vivo, wild oat (Avena fatua); conditions: foliage application, evaluated three weeks after application
# Method in brief: as §3
# [20] = test system: blackgrass; assay: Test Example 5: herbicidal effect by foliage application, plastic box (Table 20, symbol J); type: in vivo, blackgrass (Alopecurus myosuroides); conditions: foliage application, evaluated three weeks after application
# Method in brief: as §3
# [21] = test system: Italian ryegrass; assay: Test Example 5: herbicidal effect by foliage application, plastic box (Table 20, symbol K); type: in vivo, Italian ryegrass (Lolium multiflorum); conditions: foliage application, evaluated three weeks after application
# Method in brief: as §3
# [22] = test system: windgrass; assay: Test Example 5: herbicidal effect by foliage application, plastic box (Table 20, symbol L); type: in vivo, windgrass (Apera spica-venti); conditions: foliage application, evaluated three weeks after application
# Method in brief: as §3
# [23] = test system: velvetleaf; assay: Test Example 5: herbicidal effect by foliage application, plastic box (Table 20, symbol M); type: in vivo, velvetleaf (Abutilon theophrasti); conditions: foliage application, evaluated three weeks after application
# Method in brief: as §3
# [24] = test system: redroot pigweed; assay: Test Example 5: herbicidal effect by foliage application, plastic box (Table 20, symbol N); type: in vivo, redroot pigweed (Amaranthus retroflexus); conditions: foliage application, evaluated three weeks after application
# Method in brief: as §3
# [25] = test system: lambsquarters; assay: Test Example 5: herbicidal effect by foliage application, plastic box (Table 20, symbol O); type: in vivo, lambsquarters (Chenopodium album); conditions: foliage application, evaluated three weeks after application
# Method in brief: as §3
# [26] = test system: chickweed; assay: Test Example 5: herbicidal effect by foliage application, plastic box (Table 20, symbol P); type: in vivo, common chickweed (Stellaria media); conditions: foliage application, evaluated three weeks after application
# Method in brief: as §3
# [27] = test system: persian speedwell; assay: Test Example 5: herbicidal effect by foliage application, plastic box (Table 20, symbol R); type: in vivo, Persian speedwell (Veronica persica); conditions: foliage application, evaluated three weeks after application
# Method in brief: as §3
# [28] = amount of applied herbicide 320 g/ha
# [29] = amount of applied herbicide 221 g/ha
smiles,measurement,setting,value
Cc1nn(C)c(=O)c(-c2c(-c3ccc(OC(F)F)cc3)sc3ccc(F)cc23)c1OCC#N [2-303],herbicidal effect on H: barnyard grass,[1]; [28],5 (Herbicidal rate of 90% or more (almost completely withered))
same,herbicidal effect on D: Chinese sprangletop,[2]; [28],4 (Herbicidal rate of 70% or more and less than 90%)
same,herbicidal effect on E: rice flat sedge,[3]; [28],3 (Herbicidal rate of 40% or more and less than 70%)
same,herbicidal effect on F: southern crabgrass,[4]; [28],0 (Herbicidal rate of 5% or less (almost no effect))
same,herbicidal effect on G: green foxtail,[5]; [28],0 (Herbicidal rate of 5% or less (almost no effect))
same,herbicidal effect on H: barnyard grass,[6]; [28],0 (Herbicidal rate of 5% or less (almost no effect))
same,herbicidal effect on I: wild oat,[7]; [28],0 (Herbicidal rate of 5% or less (almost no effect))
same,herbicidal effect on J: blackgrass,[8]; [28],0 (Herbicidal rate of 5% or less (almost no effect))
same,herbicidal effect on K: Italian ryegrass,[9]; [28],0 (Herbicidal rate of 5% or less (almost no effect))
same,herbicidal effect on L: windgrass,[10]; [28],0 (Herbicidal rate of 5% or less (almost no effect))
same,herbicidal effect on M: velvetleaf,[11]; [28],0 (Herbicidal rate of 5% or less (almost no effect))
same,herbicidal effect on N: redroot pigweed,[12]; [28],0 (Herbicidal rate of 5% or less (almost no effect))
same,herbicidal effect on O: lambsquarters,[13]; [28],0 (Herbicidal rate of 5% or less (almost no effect))
same,herbicidal effect on P: chickweed,[14]; [28],3 (Herbicidal rate of 40% or more and less than 70%)
same,herbicidal effect on R: persian speedwell,[15]; [28],4 (Herbicidal rate of 70% or more and less than 90%)
same,"F: southern crabgrass, herbicidal effect (criteria 0-5)",[16]; AAH 320 g/ha,0 (Herbicidal rate of 5% or less (almost no effect))
same,"G: green foxtail, herbicidal effect (criteria 0-5)",[17]; AAH 320 g/ha,5 (Herbicidal rate of 90% or more (almost completely withered))
same,"H: barnyard grass, herbicidal effect (criteria 0-5)",[18]; AAH 320 g/ha,4 (Herbicidal rate of 70% or more and less than 90%)
same,"I: wild oat, herbicidal effect (criteria 0-5)",[19]; AAH 320 g/ha,0 (Herbicidal rate of 5% or less (almost no effect))
same,"J: blackgrass, herbicidal effect (criteria 0-5)",[20]; AAH 320 g/ha,0 (Herbicidal rate of 5% or less (almost no effect))
same,"K: Italian ryegrass, herbicidal effect (criteria 0-5)",[21]; AAH 320 g/ha,3 (Herbicidal rate of 40% or more and less than 70%)
same,"L: windgrass, herbicidal effect (criteria 0-5)",[22]; AAH 320 g/ha,0 (Herbicidal rate of 5% or less (almost no effect))
same,"M: velvetleaf, herbicidal effect (criteria 0-5)",[23]; AAH 320 g/ha,5 (Herbicidal rate of 90% or more (almost completely withered))
same,"N: redroot pigweed, herbicidal effect (criteria 0-5)",[24]; AAH 320 g/ha,5 (Herbicidal rate of 90% or more (almost completely withered))
same,"O: lambsquarters, herbicidal effect (criteria 0-5)",[25]; AAH 320 g/ha,5 (Herbicidal rate of 90% or more (almost completely withered))
same,"P: chickweed, herbicidal effect (criteria 0-5)",[26]; AAH 320 g/ha,5 (Herbicidal rate of 90% or more (almost completely withered))
same,"R: persian speedwell, herbicidal effect (criteria 0-5)",[27]; AAH 320 g/ha,5 (Herbicidal rate of 90% or more (almost completely withered))
Cc1ccc2sc(-c3ccc(C#N)cc3)c(-c3c(O)c(C)nn(C)c3=O)c2c1 [2-146],herbicidal effect on H: barnyard grass,[1]; [29],4 (Herbicidal rate of 70% or more and less than 90%)
same,herbicidal effect on D: Chinese sprangletop,[2]; [29],0 (Herbicidal rate of 5% or less (almost no effect))
same,herbicidal effect on E: rice flat sedge,[3]; [29],3 (Herbicidal rate of 40% or more and less than 70%)
same,"F: southern crabgrass, herbicidal effect rating",[4]; [29],0 (Herbicidal rate of 5% or less (almost no effect))
same,"G: green foxtail, herbicidal effect rating",[5]; [29],0 (Herbicidal rate of 5% or less (almost no effect))
same,"H: barnyard grass, herbicidal effect rating",[6]; [29],0 (Herbicidal rate of 5% or less (almost no effect))
same,"I: wild oat, herbicidal effect rating",[7]; [29],0 (Herbicidal rate of 5% or less (almost no effect))
same,"J: blackgrass, herbicidal effect rating",[8]; [29],0 (Herbicidal rate of 5% or less (almost no effect))
same,"K: Italian ryegrass, herbicidal effect rating",[9]; [29],0 (Herbicidal rate of 5% or less (almost no effect))
same,"L: windgrass, herbicidal effect rating",[10]; [29],0 (Herbicidal rate of 5% or less (almost no effect))
same,"M: velvetleaf, herbicidal effect rating",[11]; [29],0 (Herbicidal rate of 5% or less (almost no effect))
same,"N: redroot pigweed, herbicidal effect rating",[12]; [29],4 (Herbicidal rate of 70% or more and less than 90%)
same,"O: lambsquarters, herbicidal effect rating",[13]; [29],0 (Herbicidal rate of 5% or less (almost no effect))
same,"P: chickweed, herbicidal effect rating",[14]; [29],5 (Herbicidal rate of 90% or more (almost completely withered))
same,"R: persian speedwell, herbicidal effect rating",[15]; [29],5 (Herbicidal rate of 90% or more (almost completely withered))
same,herbicidal effect on F: southern crabgrass (criteria 0-5),[16]; 221 g/ha,0 (Herbicidal rate of 5% or less (almost no effect))
same,herbicidal effect on G: green foxtail (criteria 0-5),[17]; 221 g/ha,4 (Herbicidal rate of 70% or more and less than 90%)
same,herbicidal effect on H: barnyard grass (criteria 0-5),[18]; 221 g/ha,4 (Herbicidal rate of 70% or more and less than 90%)
same,herbicidal effect on I: wild oat (criteria 0-5),[19]; 221 g/ha,3 (Herbicidal rate of 40% or more and less than 70%)
same,herbicidal effect on J: blackgrass (criteria 0-5),[20]; 221 g/ha,3 (Herbicidal rate of 40% or more and less than 70%)
same,herbicidal effect on K: Italian ryegrass (criteria 0-5),[21]; 221 g/ha,4 (Herbicidal rate of 70% or more and less than 90%)
same,herbicidal effect on L: windgrass (criteria 0-5),[22]; 221 g/ha,0 (Herbicidal rate of 5% or less (almost no effect))
same,herbicidal effect on M: velvetleaf (criteria 0-5),[23]; 221 g/ha,2 (Herbicidal rate of 20% or more and less than 40%)
same,herbicidal effect on N: redroot pigweed (criteria 0-5),[24]; 221 g/ha,5 (Herbicidal rate of 90% or more (almost completely withered))
same,herbicidal effect on O: lambsquarters (criteria 0-5),[25]; 221 g/ha,3 (Herbicidal rate of 40% or more and less than 70%)
same,herbicidal effect on P: chickweed (criteria 0-5),[26]; 221 g/ha,5 (Herbicidal rate of 90% or more (almost completely withered))
same,herbicidal effect on R: persian speedwell (criteria 0-5),[27]; 221 g/ha,5 (Herbicidal rate of 90% or more (almost completely withered))
